Read-outs that look alike come from different tables or passages of the source.
Assays:
[1] = system: LPS Induced IL23p19 in THP-1 Cells; experiment: LPS Induced IL23p19 in THP-1 Cells (with IFNγ Primed) Assay; assay type: cell-based, human; conditions: THP-1 cells primed with IFNγ 50 ng/mL, LPS 1 ug/mL, 18 hours, 10 pt, read-out: IL23-p19 ELISA, THP1-IFNγ, LPS, 10 pt EC50
From the text: LPS Induced IL23p19 in THP-1 Cells (with IFNγ Primed) Assay
THP-1 Cells (ATCC, Cat #TIB-202), Dimethyl Sulfoxide (DMSO) (Sigma-Aldrich, Cat #D2650), RPMI 1640 (Cellgro, Cat #10-040-CM), Fetal Bovine Serum (Sigma, Cat #F4135), Albumin From Bovine Serum (BSA) (Sigma-Aldrich, Cat #A7906), LPS (Serotype K-235, Sigma, Product Number L 2143), IFNγ (Peprotech, Cat #300-02) Capture antibody: Human IL-23p19 ELISA (e-Bioscience, Cat. #14-7238-85), Detection antibody: Primary Mouse Biotinylated anti-human IL-12(p40/p70) (e-Bioscience, Cat. #13-7129-85), Secondary HRP-conjugated Streptavidin (R&D Systems, Cat #DY998), 1×PBST Washing Buffer (PBS-Tween tablet) (VWR International, Cat #80058-558), ELISA Blocking Buffer (PBS with 1% BSA), ELISA Dilution Buffer (PBS with 1% BSA), 384 Well Flat-Bottom, MaxiSorp Black Immuno Plates (Thermo Scientific, Cat #12-565-346), 384 Well Flat-Bottom, White Tissue Culture Plates (Thermo Scientific, Cat #12-565-343), Super Signal ELISA Pico Chemiluminescent Substrate (Thermo Scientific, Cat #37070), Cell Titer Glo reagent (Promega, Cat #G7573), Positive control, IKK2VI inhibitor (Calbiochem, Cat #401483), AquaMax 4000 plate washer (Molecular Devices), Luminometer, Wallac Victor2 1420 Multilabel Counter.
On day 1, 50K/well THP-1 cells were seeded and primed with IFNγ (50 ng/mL) in 384-well plates for about 18 hours in RPMI media with 10% FBS. On day 2, the compound was serially diluted in DMSO from 5 mM in 3-fold dilutions, and then diluted 1:125 in RPMI media with 10% FBS. 50 μL/well 2× compound was added to 50 μL/well THP-1 cells (with IFNγ primed) in duplicate in 384 well tissue culture plates. The cells were pre-incubated with compound for 1 hour at 37° C., 5% CO2 before addition of 10 μL/well 11×LPS to give a final concentration of 1 ug/mL LPS. Day 3, after stimulation for 18 hours at 37° C., 5% CO2, the assay plate was centrifuged and 70 μL/well supernatant was harvested. IL-23p19 protein in 70 µL/well of supernatant was measured by sandwich ELISA, and 25 μl/well Cell Titer Glo reagent was added to the remaining cells to measure compound toxicity.
Human IL-23p19 Sandwich ELISA:
Maxisorp immuno ELISA plates were pre-coated with 25 μL/well of anti-IL-23p19 capture antibody (2.5 ug/mL) in PBS overnight at room temperature. After washing with 1×PBST, the plates were blocked using 100 μL/well of 1% BSA in PBS for 2 hours at room temperature. The plates were washed three times with 1×PBST and 70 μL/well supernatant were added. The plates were incubated at room temperature for 2 hours with shaking and washed three times with 1×PBST. 25 μL/well of biotin labeled anti-IL-12(p40/p70) detection antibody (100 ng/mL) in PBS with 1% BSA was added and the plates were incubated at room temperature for 2 hours with shaking. After washing three times with 1×PBST, 25 μL/well of streptavidin-HRP (1:200) in PBS with 1% BSA was added and the plates were incubated at room temperature for 20 minutes with shaking. The plates were washed three times with 1×PBST and 25 μL/well of Super Signal ELISA Pico Chemiluminescent Substrate were added. The plates were read with a luminometer, and the chemiluminescence values were entered into Athena (Rigel) for curve fitting, EC50 calculation, and database storage. […]

[2] = system: LPS induced IL-23 (p19/p40) in DC cells; experiment: IL23-p19 ELISA, dendritic (DC) cells differentiated from human PBMC, LPS stimulated; assay type: cell-based; conditions: LPS 1 μg/ml, 18 hours, 10 pt
Procedure: Compound Screening Using DC Cells
Human PBMC cells (400 million) obtained from the vendor were transferred into a T-175 flask containing 15 ml RPMI media (10% FBS) and incubate for 2 hours at 37° C. After 2 hours, the media including floating cells was aspirated out carefully and 12 ml of fresh RPMI media (10% FBS) containing GMCSF (100 ng/ml) and IL4 (20 ng/ml) was added, and the flask was kept in a 37° C. incubator for 7 days.
After 3 days, fresh GMCSF (100 ng/ml) and IL4 (20 ng/ml) were added to the flask and the incubation continued. After 7 days, the fully differentiated cells were harvested by spinning down (1200 rpm/5 min) and aspirating the media. The cells were suspended in fresh RPMI media (10% FBS) containing 50 ng/ml IFNγ (1000 U/ml) and then plated (50K/well in 100 μl) onto a white clear bottom 96 well plate and left in a 37° C. incubator for 24 hours.
After 24 hours incubation, 100 μl of RPMI media was added containing 2× concentrated test compound per well to the above cell-culture media (final concentration becomes 1×) and the plates were pre-incubated for 1 hour at 37° C. before stimulating with LPS.
After 1 hour compound pre-incubation, 10 μl per well of 20× concentrated LPS solution in RPMI media was added to give a final concentration of 1 μg/ml. The mixture was shaken and incubated the plates at 37° C. for an additional 18 hours.
155 μl of the supernatant was harvested from each well carefully (without the tip touching the bottom of the well) and to the remaining 50 μl/well of the cell culture plate was added 50 μl of Cell Titer Glo reagent. The mixture was incubated for 1-2 minutes on a shaker and the plate was read for luminescence intensity to determine the compound cytotoxicity. The cell culture supernatant collected above was used to carry out IL23 ELISA (65 μl—Supernatant) and IL10 ELISA (90 μl—Supernatant) as described below.
Human IL-23 (p19/p40) ELISA Protocol (e-Biosciences)
To 10.5 ml PBS add 50 μl of anti-IL23 (p19) was added capture antibody (2.5 μg/ml). The mixture was mixed well and 100 μl of the coating solution was added to each well of the 96 well white plates from Pierce. The wells were covered and incubated overnight at 4° C.
The anti-IL23 (p19)-antibody-coated plates were washed 2× using TBST (use plate washer) and blocked using 200 μl of 0.5% Casein for 1.5 to 2 hours at room temperature with shaking.
The plates were washed 2× using TBST and the supernatant was transferred (65 μl/well) to the above pre-blocked/IL23(p19)-antibody-coated 96 well plate, and incubated at room temperature for 1.5 hours with shaking.
The plates were washed 4× using TBST (plate washer) and 100 μl/well detection antibody solution prepared from 2 μl of biotin labeled anti-IL-12 (p40/p70) antibody in 11 ml 1% BSA/PBS solution (1-5000 dilution) was added. The plates were incubated for 1 hour with shaking at Room temperature.
Again, the plates were washed 4× with TBST and 100 μl of HRP labeled Streptavidin (R&D Systems) solution (10 μl/10 ml 1% BSA solution) was added, and the plates were incubated at room temperature for another 45 minutes with shaking.
After 45 minutes, the plates were washed with TBST 4× and 100 μl/well Super Signal ELISA Pico Chemiluminescent Substrate from Pierce (3.5 ml A+3.5 ml B+3.5 ml MQ water) was added. The plates were shaken for 1-2 minutes then read on a plate reader. […]

SMILES	EC50 ([1]; Table 1) [nM]	EC50 ([1]; Table 2) [nM]	EC50 ([2]; Table 1, IFNγ 50 ng/ml) [nM]	EC50 ([2]; Table 2, IFNγ 50 ng/ml) [nM]	EC50 ([1]; Homo sapiens, Table 1) [nM]	EC50 ([1]; Table 3) [nM]	EC50 ([2]; Table 3, IFNγ 50 ng/ml) [nM]
CCO[C@H]1CC[C@H](n2cc(NC(=O)c3coc(-c4cn[nH]c4)n3)c(-c3ncc(F)cc3F)n2)CC1 [Compound I-13, N-(3-(3,5-difluoropyridin-2-yl)-1-((1r,4r)-4-ethoxycyclohexyl)-1H-pyrazol-4-yl)-2-(1H-pyrazol-4-yl)oxazole-4-carboxamide]	34.1	34.1	143	143			
COCCOCCn1cc(NC(=O)c2coc(-c3cn[nH]c3)n2)c(-c2ccccn2)n1 [Compound I-24, N-(1-(2-(2-methoxyethoxy)ethyl)-3-(pyridin-2-yl)-1H-pyrazol-4-yl)-2-(1H-pyrazol-4-yl)oxazole-4-carboxamide]			217		238		
CCO[C@H]1CC[C@H](n2cc(NC(=O)c3coc(-c4cn[nH]c4)n3)c(-c3ncccn3)n2)CC1 [Compound I-3, N-(1-((1r,4r)-4-ethoxycyclohexyl)-3-(pyrimidin-2-yl)-1H-pyrazol-4-yl)-2-(1H-pyrazol-4-yl)oxazole-4-carboxamide]	8.9	8.9	3.3	3.3			
O=C(Nc1cn(C2CCC2)nc1-c1ccccn1)c1coc(-c2cn[nH]c2)n1 [Compound I-23, N-(1-cyclobutyl-3-(pyridin-2-yl)-1H-pyrazol-4-yl)-2-(1H-pyrazol-4-yl)oxazole-4-carboxamide]						270	71
CCO[C@H]1CC[C@H](n2cc(NC(=O)c3coc(-c4cn[nH]c4)n3)c(-c3cnccn3)n2)CC1 [Compound I-1, N-(1-((1r,4r)-4-ethoxycyclohexyl)-3-(pyrazin-2-yl)-1H-pyrazol-4-yl)-2-(1H-pyrazol-4-yl)oxazole-4-carboxamide]			33.4		4.8		
O=C(Nc1cn([C@H]2C[C@@H](O)C2)nc1-c1cnccn1)c1coc(-c2cn[nH]c2)n1 [Compound I-38, N-(1-((1s,3s)-3-hydroxycyclobutyl)-3-(pyrazin-2-yl)-1H-pyrazol-4-yl)-2-(1H-pyrazol-4-yl)oxazole-4-carboxamide]			39.9		2.6		
O=C(Nc1cn([C@H]2C[C@@H](N3CCOCC3)C2)nc1-c1cnccn1)c1coc(-c2cn[nH]c2)n1 [Compound I-34, N-(1-((1s,3s)-3-morpholinocyclobutyl)-3-(pyrazin-2-yl)-1H-pyrazol-4-yl)-2-(1H-pyrazol-4-yl)oxazole-4-carboxamide]			18.8		7.8		
O=C(Nc1cn(C2CCOCC2)nc1-c1ccccn1)c1coc(-c2cn[nH]c2)n1 [Compound I-20, 2-(1H-pyrazol-4-yl)-N-(3-(pyridin-2-yl)-1-(tetrahydro-2H-pyran-4-yl)-1H-pyrazol-4-yl)oxazole-4-carboxamide]						39.9	135
O=C(Nc1cn([C@H]2CC[C@H](N3CCOCC3)CC2)nc1-c1nc(C(F)(F)F)ccc1F)c1coc(-c2cn[nH]c2)n1 [Compound I-7, N-(3-(3-fluoro-6-(trifluoromethyl)pyridin-2-yl)-1-((1r,4r)-4-morpholinocyclohexyl)-1H-pyrazol-4-yl)-2-(1H-pyrazol-4-yl)oxazole-4-carboxamide]	28	28	75.7	75.7			
CCO[C@H]1C[C@@H](n2cc(NC(=O)c3coc(-c4cn[nH]c4)n3)c(-c3nc(F)ccc3F)n2)C1 [Compound I-10, N-(3-(3,6-difluoropyridin-2-yl)-1-((1s,3s)-3-ethoxycyclobutyl)-1H-pyrazol-4-yl)-2-(1H-pyrazol-4-yl)oxazole-4-carboxamide]	69.9	69.9	30.9	30.9			
CCO[C@H]1CC[C@H](n2cc(NC(=O)c3coc(-c4cn[nH]c4)n3)c(-c3nc(F)ccc3F)n2)CC1 [Compound I-9, N-(3-(3,6-difluoropyridin-2-yl)-1-((1r,4r)-4-ethoxycyclohexyl)-1H-pyrazol-4-yl)-2-(1H-pyrazol-4-yl)oxazole-4-carboxamide]	22.8	22.8	172	172			
CCOCCn1cc(NC(=O)c2coc(-c3cn[nH]c3)n2)c(-c2ccccn2)n1 [Compound I-21, N-(1-(2-ethoxyethyl)-3-(pyridin-2-yl)-1H-pyrazol-4-yl)-2-(1H-pyrazol-4-yl)oxazole-4-carboxamide]						243	170
